Among the data in ChEMBL document CHEMBL1126889, “Dopamine receptor modulation by a highly rigid spiro bicyclic peptidomimetic of Pro-Leu-Gly-NH2” (J Med Chem, 1993) are Binding values, retold here.

Residues, ends and D or L forms follow the SMILES beside them.

The target of assay [1] is T1, Dopamine receptor (Bos taurus) (UniProt Q95136+P20288). The assay is described as follows: Tested for ability to enhance the binding of the dopamine receptor agonist [3H]-ADTN to striatal dopamine receptors in vitro at 10 e-6 M. In kind it is protein assay.
In assay [2] the target is T1, Dopamine receptor (Bos taurus). The experiment in a line: Tested for ability to enhance the binding of the dopamine receptor agonist [3H]ADTN to striatal dopamine receptors in vitro. In kind it is protein assay.

`NC(=O)[C@H]1CS[C@@H]2C[C@]3(CCCN3C(=O)C3CCCN3)C(=O)N12` (some centres not stated): the Binding in assay [1] came out at 40%.
As for `CC(C)C[C@H](NC(=O)[C@@H]1CCCN1)C(=O)NCC(N)=O` (H-Pro-Leu-Gly-NH2), in assay [2], the Binding stood at 26%.
